System: Sarcoptes mites
Test: Treatment of Sarcoptes mites of sheep (skin scrapings, live mites)
Format: in vivo
Settings: 1% injection 0.2 mg/kg bw s.c.; for Negative conversion number: sheep (10 per group); for Negative conversion rate (%): sheep
Excerpt: Test agents: 1% ivermectin injection, 1% tenvermectin A injection and 1% tenvermectin B injection as obtained in Example 1.
Test animals and grouping: sheep grazed under the same conditions were selected. Upon parasitological examination, 40 sheep which had been infected with sheep Sarcoptes mites were selected. The 40 sheep were randomly divided into 4 groups, 10 heads for each group. The first group was the ivermectin control group, the second group was the tenvermectin A group, and the third group was the tenvermectin B group. All the medicated groups were injected subcutaneously in the neck according to 0.2 mg/kg·bw. The fourth group was a blank group and was not medicated.
Test methods: the changes of clinical symptoms were observed. The skin of sheep was scratched using a surgical blade with glycerin at the junction of the affected part and the healthy skin of the diseased sheep until the skin slightly bled. The skin scraps were taken then were placed in a dish and brought back to the laboratory. Then the skin scraps were placed on a slide, a drop of aqueous solution of 50% glycerol was added, and a cover slip was covered, and then the skin scraps were checked under a low magnification microscope. It was confirmed to be positive if live Sarcoptes mites were observed. Samples were taken before administration and at 1, 2, 3 and 4 weeks after administration to be examined. The samples were examined under a microscope, based on whether live mites were observed, the samples can be determined to be positive as long as one live mite was observed. Changes of clinical symptoms were observed as references.

Row | Structure (SMILES) | Negative conversion number (1st week) | Negative conversion number (2nd week) | Negative conversion number (3rd week) | Negative conversion number (4th week) | Negative conversion rate (%) (1st week) | Negative conversion rate (%) (2nd week) | Negative conversion rate (%) (3rd week) | Negative conversion rate (%) (4th week)
1 | COC1CC(OC2C(C)OC(OC3C(C)=CCC4CC(CC5(CCC(C)C(C)O5)O4)OC(=O)C4C=C(C)C(O)C5OCC(=CC=CC3C)C45O)CC2OC)OC(C)C1O (stereo not shown) [Tenvermectin A, tenvermectin A] | 8 | 9 | 10 | 10 | 80 | 90 | 100 | 100
2 | CC[C@H]1O[C@]2(CC[C@@H]1C)C[C@@H]1C[C@@H](C/C=C(\C)[C@@H](O[C@H]3C[C@H](OC)[C@@H](O[C@H]4C[C@H](OC)[C@@H](O)[C@H](C)O4)[C@H](C)O3)[C@@H](C)/C=C/C=C3\CO[C@@H]4[C@H](O)C(C)=C[C@@H](C(=O)O1)[C@]34O)O2 [Tenvermectin B, tenvermectin B] | 9 | 10 | 10 | 10 | 90 | 100 | 100 | 100
